Test results reported in patent publication US20060063759A1, “Tricyclic steroid hormone nuclear receptor modulators” (priority 2002, published 2006).

Tests used:
glucocorticoid receptor = biological target: T1, glucocorticoid receptor (Homo sapiens, UniProt P04150); assay: Glucocorticoid Receptor Binding Assay ([3H]-dexamethasone, A549 cell extract); details: [3H]-dexamethasone binding, read-out: GR Ki
T1 construct: containing 50-200 ug of A549 cell extract and 1.86 nM [^3H]-dexamethasone; host or cells: A549 human lung epithelial cells (sonicated cell extract)
T1 sequence (P04150 1-777): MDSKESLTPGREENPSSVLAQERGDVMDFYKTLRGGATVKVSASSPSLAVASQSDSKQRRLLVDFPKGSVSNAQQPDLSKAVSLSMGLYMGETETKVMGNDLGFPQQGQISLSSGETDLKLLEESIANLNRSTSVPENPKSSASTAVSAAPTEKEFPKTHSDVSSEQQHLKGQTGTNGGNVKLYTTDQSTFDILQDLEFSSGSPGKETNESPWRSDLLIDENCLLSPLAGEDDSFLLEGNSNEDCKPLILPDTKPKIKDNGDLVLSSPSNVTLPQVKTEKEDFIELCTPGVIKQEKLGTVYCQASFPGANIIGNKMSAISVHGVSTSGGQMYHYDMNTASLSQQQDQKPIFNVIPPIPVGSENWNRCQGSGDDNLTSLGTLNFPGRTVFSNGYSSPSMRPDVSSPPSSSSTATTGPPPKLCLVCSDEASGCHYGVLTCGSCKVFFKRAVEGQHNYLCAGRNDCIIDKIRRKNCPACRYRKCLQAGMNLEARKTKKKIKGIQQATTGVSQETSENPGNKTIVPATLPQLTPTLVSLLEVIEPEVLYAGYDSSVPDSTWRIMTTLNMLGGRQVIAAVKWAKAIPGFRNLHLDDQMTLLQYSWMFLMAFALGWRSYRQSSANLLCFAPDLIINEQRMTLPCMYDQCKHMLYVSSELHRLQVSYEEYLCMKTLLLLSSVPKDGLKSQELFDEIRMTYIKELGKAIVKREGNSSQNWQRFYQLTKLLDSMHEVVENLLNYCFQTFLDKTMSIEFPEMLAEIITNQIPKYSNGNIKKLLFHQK
How it was run: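 A549 cell extract (50–200 ug) incubated with 1.86 nM [3H]-dexamethasone and test compound for 16 h at 4 °C in Tris-HCl pH 7.2 buffer with glycerol and molybdate. Unbound radioligand removed by dextran-coated charcoal, then supernatant bound counts measured by scintillation.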

human MR = biological target: T2, human MR (Homo sapiens, UniProt P08235); assay: Mineralocorticoid Receptor Binding Assay ([3H]-aldosterone); details: [3H]-aldosterone binding, human MR expressed in Sf9 cells; read-out: MR Ki
T2 construct: The full length human MR gene is cloned from a human kidney or human brain cDNA library; His tag from the pAcHLT vector (own knowledge); made in house; host or cells: Sf9 insect cells (baculovirus, pAcHLT transfer vector)
T2 sequence (P08235 1-984): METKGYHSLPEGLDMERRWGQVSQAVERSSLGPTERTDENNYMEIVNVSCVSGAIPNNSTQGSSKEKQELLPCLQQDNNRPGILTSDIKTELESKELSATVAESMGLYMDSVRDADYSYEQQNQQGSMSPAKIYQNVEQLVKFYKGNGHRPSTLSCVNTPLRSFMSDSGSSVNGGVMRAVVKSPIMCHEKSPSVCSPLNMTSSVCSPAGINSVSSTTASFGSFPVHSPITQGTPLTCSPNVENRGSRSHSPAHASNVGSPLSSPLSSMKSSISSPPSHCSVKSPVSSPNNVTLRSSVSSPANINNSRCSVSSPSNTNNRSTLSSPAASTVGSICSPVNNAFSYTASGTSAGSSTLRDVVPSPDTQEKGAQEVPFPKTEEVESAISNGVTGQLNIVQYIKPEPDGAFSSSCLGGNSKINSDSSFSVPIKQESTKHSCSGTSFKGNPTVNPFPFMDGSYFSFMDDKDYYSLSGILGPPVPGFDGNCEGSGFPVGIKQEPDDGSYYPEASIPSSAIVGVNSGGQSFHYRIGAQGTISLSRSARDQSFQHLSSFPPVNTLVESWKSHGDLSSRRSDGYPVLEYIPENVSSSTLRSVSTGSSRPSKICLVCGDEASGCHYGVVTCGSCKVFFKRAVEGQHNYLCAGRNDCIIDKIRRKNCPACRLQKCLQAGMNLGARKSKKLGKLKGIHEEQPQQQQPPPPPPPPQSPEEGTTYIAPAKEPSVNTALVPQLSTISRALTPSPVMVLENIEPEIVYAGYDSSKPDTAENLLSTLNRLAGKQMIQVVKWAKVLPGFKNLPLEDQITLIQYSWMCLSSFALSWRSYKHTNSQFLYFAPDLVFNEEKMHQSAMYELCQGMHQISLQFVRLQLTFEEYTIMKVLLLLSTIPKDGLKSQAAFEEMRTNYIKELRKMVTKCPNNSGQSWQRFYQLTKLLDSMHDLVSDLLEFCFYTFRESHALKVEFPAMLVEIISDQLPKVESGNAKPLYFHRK
How it was run: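 Lysate supernatant of Sf9 cells expressing full-length human MR (20-25 μg protein) was incubated with 0.5 nM [3H]-aldosterone and test compound in molybdate/Tris/phosphate/glycerol buffer, pH 7.5, ~16 h at 4 °C. Bound ligand was filtered and counted by scintillation; IC50 is the concentration halving [3H]-aldosterone binding.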

Row | Ki (glucocorticoid receptor) | Ki (human MR) | Structure (SMILES)
1 | < 10000 nM | < 500 nM | N#Cc1ccc2c(n1)CCc1cc(F)ccc1/C2=C\c1ccc2[nH]c(=O)[nH]c2c1 [Example 591]
2 | < 10000 nM | < 500 nM | COC(=O)c1cccc(/C=C2/c3ccc(F)cc3CCc3ncccc32)c1 [Example 586]
3 | < 500 nM | < 500 nM | CS(=O)(=O)Nc1cccc(/C=C2\c3ccc(F)cc3CCc3nc(C(F)(F)F)ccc32)c1 [Example 522]
4 | < 500 nM | < 500 nM | CS(=O)(=O)Nc1cccc(/C=C2\c3ccccc3COc3c(F)cccc32)c1 [Example 670]
5 | < 500 nM | < 500 nM | C/C(=C1\c2ccccc2COc2ccccc21)c1cccc(NS(C)(=O)=O)c1 [Example 795]
6 | < 10000 nM | < 500 nM | CS(=O)(=O)Nc1cccc(/C=C2/c3ccccc3OCc3c(Cl)cccc32)c1 [Example 622]
7 | < 500 nM | < 500 nM | C/C(=C1/c2ccc(Cl)cc2COc2ccccc21)c1cccc(NS(C)(=O)=O)c1 [Example 797]
8 | < 10000 nM | < 500 nM | Fc1cccc(/C=C2/c3ccc(F)cc3CCc3ncccc32)c1 [Example 583]
9 | < 500 nM | < 500 nM | COc1ccc2c(c1)CSc1ccccc1/C2=C(\C)c1cccc(NS(C)(=O)=O)c1 [Example 842]
10 | < 500 nM | < 500 nM | COc1ccc2c(c1OC)CSc1ccccc1/C2=C\c1cccc(NS(C)(=O)=O)c1 [Example 685]
11 | < 500 nM | < 500 nM | COc1ccc2c(c1)CSc1ccccc1/C2=C/c1cccc(NS(C)(=O)=O)c1 [Example 692]
12 | < 10000 nM | < 500 nM | O=c1[nH]c2cc(/C=C3\c4ccccc4COc4cc(F)ccc43)ccc2n1CCCN1CCOCC1 [Example 608, 5-(3-fluoro-6H-dibenzo[b,e]oxepin-11-ylidenemethyl)-1-(3-morpholin-4-yl-propyl)-1,3-dihydro-benzoimidazol-2-one]
13 | < 1000 nM | < 500 nM | Oc1ccc(/C=C2\c3ccc(F)cc3CCc3ncccc32)cc1 [Example 528]
14 | < 500 nM | < 500 nM | Cc1ccc2c(c1)OCc1ccccc1/C2=C\c1cccc(NS(C)(=O)=O)c1 [Example 676]
15 | < 500 nM | < 500 nM | CC(=C1c2ccc(C)cc2CCc2cc(F)ccc21)c1cccc(NS(C)(=O)=O)c1 [Example 830]
16 | < 1000 nM | < 500 nM | COc1cc2c(cc1Br)/C(=C/c1cccc(NS(C)(=O)=O)c1)c1ccccc1CO2 [Example 668]
17 | < 500 nM | < 500 nM | COc1ccc2c(c1)CCc1cc(C)ccc1/C2=C(/C)c1cccc(NS(C)(=O)=O)c1 [Example 828]
18 | < 10000 nM | < 500 nM | Fc1ccc2c(c1)CCc1ncccc1/C2=C\c1ccccc1 [Example 527]
19 | < 500 nM | < 500 nM | CS(=O)(=O)Nc1cccc(/C=C2\c3ccccc3CSc3cc(F)ccc32)c1 [Example 746]
20 | < 500 nM | < 500 nM | O=c1[nH]c2cc(/C=C3/c4ccccc4COc4cc(F)ccc43)ccc2s1 [Example 636]

Continued, compound first:

Row | Structure (SMILES) | Ki (glucocorticoid receptor) | Ki (human MR)
21 | CS(=O)(=O)Nc1cc(F)cc(C=C2c3ccccc3CCc3ccccc32)c1 [Example 50, N-[3-(10,11-Dihydro-dibenzo[a,d]cyclohepten-5-ylidenemethyl)-5-fluoro-phenyl]-methanesulfonamide] | < 500 nM | < 500 nM
22 | N#CNc1cccc(C=C2c3ccccc3CCc3ccccc32)c1 [Example 280] | < 1000 nM | < 500 nM
23 | CS(=O)(=O)Nc1cccc(/C=C2\c3ccccc3CCc3ccncc32)c1 [Example 515] | < 10000 nM | < 500 nM
24 | O=c1[nH]c2cc(/C=C3/c4ccccc4CCc4cc(F)ccc43)ccc2s1 [Example 468] | < 500 nM | < 500 nM
25 | O/N=C/c1cccc(C=C2c3ccccc3CCc3ccccc32)c1 [Example 78, 3-(10,11-Dihydro-dibenzo[a,d]cyclohepten-5-ylidenemethyl)-benzaldehyde oxime] | < 1000 nM | < 500 nM
26 | O=c1[nH]c2ccc(/C=C3/c4ccc(F)cc4CCc4ncccc43)cc2[nH]1 [Example 518] | < 500 nM | < 500 nM
27 | Cc1ccccc1C=C1c2ccccc2CCc2cc(Cl)ccc21 [Example 175, 2-Chloro-5-(2-methyl-benzylidene)-10,11-dihydro-5H-dibenzo[a,d]cycloheptene] | < 10000 nM | < 500 nM
28 | CS(=O)(=O)Nc1cccc(/C=C2/c3ccc(Cl)cc3CCc3sccc32)c1 [Example 499] | < 500 nM | < 500 nM
29 | CS(=O)(=O)c1cccc(C=C2c3ccccc3CCc3ccccc32)c1 [Example 279, 5-(3-Methanesulfonyl-benzylidene)-10,11-dihydro-5H-dibenzo[a,d]cycloheptene] | < 10000 nM | < 500 nM
30 | CS(=O)(=O)Nc1cccc(C=C2c3ccccc3CCc3cc(F)ccc32)c1 [199(a), N-[3-(2-Fluoro-10,11-dihydro-dibenzo[a,d]cyclohepten-5-ylidenemethyl)-phenyl]-methanesulfonamide] | < 500 nM | < 500 nM
31 | CS(=O)(=O)Nc1cccc(CC2c3ccc(F)cc3CCc3ncccc32)c1 (stereo not drawn) [Example 519] | < 500 nM | < 500 nM
32 | O=c1[nH]c2ccc(/C=C3/c4ccccc4CCc4cc(C(F)F)ccc43)cc2[nH]1 [Example 452] | < 1000 nM | < 500 nM
33 | O=S(=O)(Nc1cccc(C=C2c3ccccc3CCc3cc(Cl)ccc32)c1)c1cccs1 [Example 295] | < 500 nM | < 500 nM
34 | Cc1c(C=C2c3ccccc3CCc3ccccc32)cccc1NS(C)(=O)=O [Example 48, N-[3-(10,11-Dihydro-dibenzo[a,d]cyclohepten-5-ylidenemethyl)-2-methyl-phenyl]-methanesulfonamide] | < 500 nM | < 500 nM
35 | CC(=O)Nc1nc(C)c(S(=O)(=O)Nc2cccc(C=C3c4ccccc4CCc4cc(Cl)ccc43)c2)s1 [Example 297] | < 10000 nM | < 500 nM
36 | Oc1cccc(C=C2c3ccccc3CCc3c(F)cccc32)c1 [185(b), 3-(1-Fluoro-10,11-dihydro-dibenzo[a,d]cyclohepten-5-ylidenemethyl)-phenol] | < 1000 nM | < 500 nM
37 | COc1ccc(S(=O)(=O)Nc2cccc(C=C3c4ccccc4CCc4cc(Cl)ccc43)c2)cc1 [Example 293] | < 500 nM | < 500 nM
38 | CS(=O)(=O)Nc1cccc(/C=C2/c3ccccc3CCc3cc(-c4ccccc4)ccc32)c1 [Example 306] | < 1000 nM | < 500 nM
39 | COc1cc2c(cc1OC)C(=Cc1cccc(NS(C)(=O)=O)c1)c1ccccc1CC2 [Example 170(a), N-[3-(2,3-Dimethoxy-10,11-dihydro-dibenzo[a,d]cyclohepten-5-ylidenemethyl)-phenyl]-methanesulfonamide] | < 1000 nM | < 500 nM
